Experimental data taken from PubChem BioAssay AID328 (DTP/NCI, 2004).
Values joined by “and” are separate entries in the source; they are usually repeats but may differ in a detail not shown here. Equal entries are not always repeated. Inconclusive results and toxic doses are left out.

Tested on: BDF1 mice, P388 leukemia ip, median survival T/C
Assay: NCI In Vivo Anticancer Drug Screen. Data for tumor model P388 Leukemia (intraperitoneal) in B6D2F1 (BDF1) mice
Conditions: endpoint: median survival time, higher = longer survival
Outline: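 Antitumour effect was judged in vivo: survival in drug-treated mice, normalised to that of vehicle-dosed controls, gives the reported T/C.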

[1] = dose: 50.0 mg/kg/injection, schedule: Q01DX009 (ip), vehicle: saline with Tween-80
[2] = dose: 100.0 mg/kg/injection, schedule: Q01DX009 (ip), vehicle: saline with Tween-80
[3] = dose: 200.0 mg/kg/injection, schedule: Q01DX009 (ip), vehicle: saline with Tween-80
[4] = dose: 100.0 mg/kg/injection, schedule: Q04DX003 (ip), vehicle: saline
[5] = dose: 25.0 mg/kg/injection, schedule: Q01DX009 (ip), vehicle: saline with Tween-80
[6] = dose: 50.0 mg/kg/injection, schedule: Q01DX009 (ip), vehicle: saline
[7] = dose: 100.0 mg/kg/injection, schedule: Q01DX009 (ip), vehicle: Klucel (hydroxypropylcellulose) (HPC)
[8] = dose: 400.0 mg/kg/injection, schedule: Q01DX009 (ip), vehicle: Klucel (hydroxypropylcellulose) (HPC)
[9] = dose: 100.0 mg/kg/injection, schedule: Q04DX003 (ip), vehicle: saline with Tween-80
[10] = dose: 200.0 mg/kg/injection, schedule: Q04DX003 (ip), vehicle: saline with Tween-80

SMILES: CCc1nnc2n1N=C(c1ccc(-c3ccccc3)cc1)CS2
- T/C [1]: 90 % of control
- T/C [2]: 89 % of control
- T/C [3]: 90 % of control

SMILES: Nc1noc(N)n1
- T/C [4]: 109 % of control
- T/C (dose: 200.0 mg/kg/injection, schedule: Q04DX003 (ip), vehicle: saline): 100 % of control
- T/C (dose: 400.0 mg/kg/injection, schedule: Q04DX003 (ip), vehicle: saline): 104 % of control

SMILES: c1ccc(N=NC2=NN(c3ccccc3)CCS2)cc1
- T/C [5]: 116 % of control
- T/C [1]: 105 % of control
- T/C [2]: 122 % of control

SMILES: CCOC1=NCCCCC1
- T/C [6]: 98 % of control
- T/C (dose: 100.0 mg/kg/injection, schedule: Q01DX009 (ip), vehicle: saline): 95 % of control
- T/C (dose: 200.0 mg/kg/injection, schedule: Q01DX009 (ip), vehicle: saline): 98 % of control
- T/C (dose: 400.0 mg/kg/injection, schedule: Q01DX009 (ip), vehicle: saline): 98 % of control

SMILES: NNc1n[nH]c(=S)n1N
- T/C (dose: 6.25 mg/kg/injection, schedule: Q04DX003 (ip), vehicle: saline with Tween-80): 104 % of control
- T/C (dose: 12.5 mg/kg/injection, schedule: Q04DX003 (ip), vehicle: saline with Tween-80): 100 % of control
- T/C (dose: 25.0 mg/kg/injection, schedule: Q04DX003 (ip), vehicle: saline with Tween-80): 95 % of control

SMILES: O=C(Nc1ccc(C2=NCCN2)cc1)c1cccc(C(=O)Nc2ccc(C3=NCCN3)cc2)c1
- T/C (dose: 8.0 mg/kg/injection, schedule: Q01DX010 (ip), vehicle: saline): 160 % of control
- T/C (dose: 16.0 mg/kg/injection, schedule: Q01DX010 (ip), vehicle: saline): 163 % of control and 180 % of control
- T/C (dose: 32.0 mg/kg/injection, schedule: Q01DX010 (ip), vehicle: saline): 195 % of control and 200 % of control
- T/C (dose: 64.0 mg/kg/injection, schedule: Q01DX010 (ip), vehicle: saline): 235 % of control and 200 % of control

SMILES: O=C(N/N=C/C=C/c1ccccc1)[C@H](O)[C@@H](O)C(=O)N/N=C/C=C/c1ccccc1
- T/C [7]: 88 % of control
- T/C (dose: 200.0 mg/kg/injection, schedule: Q01DX009 (ip), vehicle: Klucel (hydroxypropylcellulose) (HPC)): 96 % of control
- T/C [8]: 92 % of control

SMILES: CCOC(=O)c1c[nH]c2c(OC)cccc2c1=O
- T/C [5]: 93 % of control
- T/C [1]: 109 % of control
- T/C [2]: 109 % of control
- T/C [9]: 99 % of control
- T/C [3]: 109 % of control
- T/C [10]: 98 % of control
- T/C (dose: 300.0 mg/kg/injection, schedule: Q01DX009 (ip), vehicle: saline with Tween-80): 90 % of control

SMILES: NNC(=O)C1CC1
- T/C (dose: 6.25 mg/kg/injection, schedule: Q01DX009 (ip), vehicle: saline): 96 % of control
- T/C (dose: 12.5 mg/kg/injection, schedule: Q01DX009 (ip), vehicle: saline): 107 % of control
- T/C (dose: 25.0 mg/kg/injection, schedule: Q01DX009 (ip), vehicle: saline): 100 % of control
- T/C (dose: 25.0 mg/kg/injection, schedule: Q04DX003 (ip), vehicle: saline): 100 % of control
- T/C [6]: 100 % of control
- T/C (dose: 50.0 mg/kg/injection, schedule: Q04DX003 (ip), vehicle: saline): 100 % of control
- T/C [4]: 104 % of control

SMILES: CSc1cccc(NC(C)=O)c1
- T/C [7]: 95 % of control
- T/C [9]: 104 % of control
- T/C [10]: 100 % of control
- T/C [8]: 95 % of control
- T/C (dose: 400.0 mg/kg/injection, schedule: Q04DX003 (ip), vehicle: saline with Tween-80): 109 % of control

SMILES: CC1(C)COC(c2ccc(CC(Cc3ccc(C4(C(C)(C)C)OCC(C)(C)CO4)cc3)C(=O)O)cc2)(C(C)(C)C)OC1
- T/C (dose: 50.0 mg/kg/injection, schedule: Q01DX005 (ip), vehicle: saline with Tween-80): 86 % of control
- T/C (dose: 100.0 mg/kg/injection, schedule: Q01DX005 (ip), vehicle: saline with Tween-80): 93 % of control
- T/C (dose: 200.0 mg/kg/injection, schedule: Q01DX005 (ip), vehicle: saline with Tween-80): 96 % of control

SMILES: Oc1ccccc1C=NC1CCCCC1.Oc1ccccc1C=NC1CCCCC1.[Cu+2]
- T/C (dose: 100.0 mg/kg/injection, schedule: Q01DX001 (ip), vehicle: saline sonified): 90 % of control
- T/C (dose: 200.0 mg/kg/injection, schedule: Q01DX001 (ip), vehicle: saline sonified): 90 % of control
- T/C (dose: 400.0 mg/kg/injection, schedule: Q01DX001 (ip), vehicle: saline sonified): 109 % of control

SMILES: O=C(Nc1cccc2cccnc12)C12CC3CC(CC(C3)C1)C2
- T/C [1]: 96 % of control
- T/C [2]: 96 % of control
- T/C [3]: 100 % of control
